Measurements reported in patent US12673944B2, “Compounds having inhibitory activity against glucosylceramide synthase or pharmaceutically acceptable salt thereof, processes for preparing the same, and pharmaceutical compositions comprising the same” (YUHAN CORPORATION, priority 2019, dated 2026).

How the values were obtained:
[1] = biological target: T1, glucosylceramide synthase (GCS) (Homo sapiens, UniProt Q16739); experiment: GCS enzyme inhibition assay (A549 cell lysate, NBD C6-ceramide, HPLC fluorescence); type: biochemical; conditions: inhibitory activity against GCS, 37° C., 90 minutes
T1 construct: The obtained supernatant was used; host or cells: A549 cells (lysate supernatant after sonication)
T1 sequence (Q16739 1-394): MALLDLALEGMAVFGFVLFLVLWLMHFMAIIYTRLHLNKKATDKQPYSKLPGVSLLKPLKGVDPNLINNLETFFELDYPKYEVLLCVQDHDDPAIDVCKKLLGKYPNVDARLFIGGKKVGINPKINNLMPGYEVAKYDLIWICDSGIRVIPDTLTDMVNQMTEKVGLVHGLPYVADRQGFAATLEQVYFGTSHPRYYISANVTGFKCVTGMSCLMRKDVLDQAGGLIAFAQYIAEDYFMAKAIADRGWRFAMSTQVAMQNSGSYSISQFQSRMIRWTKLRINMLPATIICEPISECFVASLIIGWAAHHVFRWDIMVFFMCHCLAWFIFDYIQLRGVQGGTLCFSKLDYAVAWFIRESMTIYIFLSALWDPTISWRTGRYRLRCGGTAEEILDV
In short: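 A549 cell lysate (50 mM HEPES pH 7.3) served as GCS source; reactions ran 90 min at 37° C, were stopped with chloroform/methanol and lipids extracted. Activity taken as GlcCer/(Cer+GlcCer) peak area, normalised between DMSO and ibiglustat controls.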

[2] = test system: GM1 production in Jurkat cells; experiment: cells; type: cell-based; conditions: Homo sapiens, Jurkat, 72 h

SMILES | IC50 [1] [nM] | IC50 [2] [nM]
CC(C)c1cccc(-c2ccc3c(c2)COCC3NC(=O)O[C@@H]2CN3CCC2CC3)c1 (stereo partly drawn) [Example 313, (S)-quinuclidin-3-yl (7-(3-isopropylphenyl)isochroman-4-yl)carbamate] | 3.89 | 34.5
CN1CCC(NC(=O)O[C@@H]2CN3CCC2CC3)c2ccc(-c3cccc(C(C)(C)C)c3)cc21 (stereo partly drawn) [Example 314, (S)-quinuclidin-3-yl (7-(3-(tert-butyl)phenyl)-1-methyl-1,2,3,4-tetrahydroquinolin-4-yl)carbamate] | 6.47 | 56.3
CN1CCC(NC(=O)O[C@@H]2CN3CCC2CC3)c2ccc(-c3coc4ccccc34)cc21 (stereo partly drawn) [Example 315, (S)-quinuclidin-3-yl (7-(benzofuran-3-yl)-1-methyl-1,2,3,4-tetrahydroquinolin-4-yl)carbamate] | 14.7 | 58.1
O=C(NC1CCSc2ccc(-c3ccc(Cl)cc3)cc21)O[C@@H]1CN2CCC1CC2 (stereo partly drawn) [Example 316, (S)-quinuclidin-3-yl (6-(4-chlorophenyl)thiochroman-4-yl)carbamate] | 36.5 | 251
O=C(NC1CCSc2cc(-c3cccc(F)c3)ccc21)O[C@@H]1CN2CCC1CC2 (stereo partly drawn) [Example 317, (S)-quinuclidin-3-yl (7-(3-fluorophenyl)thiochroman-4-yl)carbamate] | 2.94 | 13.8
O=C(NC1CCSc2cc(-c3cccc(Cl)c3)ccc21)O[C@@H]1CN2CCC1CC2 (stereo partly drawn) [Example 318, (S)-quinuclidin-3-yl (7-(3-chlorophenyl)thiochroman-4-yl)carbamate] | 1.29 | 27.2
O=C(NC1CCSc2cc(-c3cccc(C(F)(F)F)c3)ccc21)O[C@@H]1CN2CCC1CC2 (stereo partly drawn) [Example 319, (S)-quinuclidin-3-yl (7-(3-(trifluoromethyl)phenyl)thiochroman-4-yl)carbamate] | 1.07 | 6.7
O=C(NC1CCSc2cc(-c3cccc(OC(F)(F)F)c3)ccc21)O[C@@H]1CN2CCC1CC2 (stereo partly drawn) [Example 320, (S)-quinuclidin-3-yl (7-(3-(trifluoromethoxy)phenyl)thiochroman-4-yl)carbamate] | 1.5 | 13.8
COCOc1cccc(-c2ccc3c(c2)SCCC3NC(=O)O[C@@H]2CN3CCC2CC3)c1 (stereo partly drawn) [Example 321, (S)-quinuclidin-3-yl (7-(3-(methoxymethoxy)phenyl)thiochroman-4-yl)carbamate] | 1 | 3.64
CC(C)(C)c1cccc(-c2ccc3c(c2)SCCC3NC(=O)O[C@@H]2CN3CCC2CC3)c1 (stereo partly drawn) [Example 322, (S)-quinuclidin-3-yl (7-(3-(tert-butyl)phenyl)thiochroman-4-yl)carbamate] | 1.78 | 5.88
O=C(NC1CCSc2cc(-c3cc(Cl)ccc3Cl)ccc21)O[C@@H]1CN2CCC1CC2 (stereo partly drawn) [Example 323, (S)-quinuclidin-3-yl (7-(2,5-dichlorophenyl)thiochroman-4-yl)carbamate] | 0.63 | 26.3
CCOc1cccc(-c2ccc3c(c2)SCCC3NC(=O)O[C@@H]2CN3CCC2CC3)c1 (stereo partly drawn) [Example 324, (S)-quinuclidin-3-yl (7-(3-ethoxyphenyl)thiochroman-4-yl)carbamate] | 1.25 | 14.4
CSc1cccc(-c2ccc3c(c2)SCCC3NC(=O)O[C@@H]2CN3CCC2CC3)c1 (stereo partly drawn) [Example 325, (S)-quinuclidin-3-yl (7-(3-(methylthio)phenyl)thiochroman-4-yl)carbamate] | 0.58 | 6.13
CN(C)c1cccc(-c2ccc3c(c2)SCCC3NC(=O)O[C@@H]2CN3CCC2CC3)c1 (stereo partly drawn) [Example 326, (S)-quinuclidin-3-yl (7-(3-(dimethylamino)phenyl)thiochroman-4-yl)carbamate] | 0.64 | 10.3
O=C(NC1CCSc2cc(-c3ccc4c(c3)OC(F)(F)O4)ccc21)O[C@@H]1CN2CCC1CC2 (stereo partly drawn) [Example 327, (S)-quinuclidin-3-yl (7-(2,2-difluorobenzo[d][1,3]dioxol-5-yl)thiochroman-4-yl)carbamate] | 2.7 | 37.6
O=C(NC1CCSc2cc(-c3coc4ccccc34)ccc21)O[C@@H]1CN2CCC1CC2 (stereo partly drawn) [Example 328, (S)-quinuclidin-3-yl (7-(benzofuran-3-yl)thiochroman-4-yl)carbamate] | 1.18 | 13.8

SMILES | IC50 [1] [nM] | IC50 [2] [nM]
CC1(C)CSc2ccc(-c3ccc(C(F)(F)F)cc3)cc2C1NC(=O)O[C@@H]1CN2CCC1CC2 (stereo partly drawn) [Example 329, (S)-quinuclidin-3-yl (3,3-dimethyl-6-(4-(trifluoromethyl)phenyl)thiochroman-4-yl)carbamate] | 14.9 | 33.8
CC1(C)COc2cc(-c3cccc(F)c3)c(F)cc2C1NC(=O)O[C@@H]1CN2CCC1CC2 (stereo partly drawn) [Example 330, (S)-quinuclidin-3-yl (6-fluoro-7-(3-fluorophenyl)-3,3-dimethylchroman-4-yl)carbamate] | 0.28 | 1.8
CC1(C)COc2cc(-c3ccc(F)cc3)c(F)cc2C1NC(=O)O[C@@H]1CN2CCC1CC2 (stereo partly drawn) [Example 331, (S)-quinuclidin-3-yl (6-fluoro-7-(4-fluorophenyl)-3,3-dimethylchroman-4-yl)carbamate] | 0.36 | 3.7
CC1(C)COc2cc(-c3cccc(Cl)c3)c(F)cc2C1NC(=O)O[C@@H]1CN2CCC1CC2 (stereo partly drawn) [Example 332, (S)-quinuclidin-3-yl (6-fluoro-7-(3-chlorophenyl)-3,3-dimethylchroman-4-yl)carbamate] | 0.39 | 0.9
CCc1cccc(-c2cc3c(cc2F)C(NC(=O)O[C@@H]2CN4CCC2CC4)C(C)(C)CO3)c1 (stereo partly drawn) [Example 333, (S)-quinuclidin-3-yl (7-(3-ethylphenyl)-6-fluoro-3,3-dimethylchroman-4-yl)carbamate] | 0.45 | 0.8
CCc1ccc(-c2cc3c(cc2F)C(NC(=O)O[C@@H]2CN4CCC2CC4)C(C)(C)CO3)cc1 (stereo partly drawn) [Example 334, (S)-quinuclidin-3-yl (7-(4-ethylphenyl)-6-fluoro-3,3-dimethylchroman-4-yl)carbamate] | 0.33 | 0.4
COc1cccc(-c2cc3c(cc2F)C(NC(=O)O[C@@H]2CN4CCC2CC4)C(C)(C)CO3)c1 (stereo partly drawn) [Example 335, (S)-quinuclidin-3-yl (6-fluoro-7-(3-methoxyphenyl)-3,3-dimethylchroman-4-yl)carbamate] | 0.35 | 2
COc1ccc(-c2cc3c(cc2F)C(NC(=O)O[C@@H]2CN4CCC2CC4)C(C)(C)CO3)cc1 (stereo partly drawn) [Example 336, (S)-quinuclidin-3-yl (6-fluoro-7-(4-methoxyphenyl)-3,3-dimethylchroman-4-yl)carbamate] | 0.27 | 3.5
CCOc1ccc(-c2cc3c(cc2F)C(NC(=O)O[C@@H]2CN4CCC2CC4)C(C)(C)CO3)cc1 (stereo partly drawn) [Example 337, (S)-quinuclidin-3-yl (7-(4-ethoxyphenyl)-6-fluoro-3,3-dimethylchroman-4-yl)carbamate] | 0.23 | 1.2
CC1(C)COc2cc(-c3ccsc3)c(F)cc2C1NC(=O)O[C@@H]1CN2CCC1CC2 (stereo partly drawn) [Example 338, (S)-quinuclidin-3-yl (6-fluoro-3,3-dimethyl-7-(thiophen-3-yl)chroman-4-yl)carbamate] | 0.19 | 3.3
CC(C)c1cccc(-c2cc3c(cc2F)C(NC(=O)O[C@@H]2CN4CCC2CC4)C(C)(C)CO3)c1 (stereo partly drawn) [Example 339, (S)-quinuclidin-3-yl (6-fluoro-7-(3-isopropylphenyl)-3,3-dimethylchroman-4-yl)carbamate] | 0.61 | 0.2
COc1ccc(Cl)c(-c2cc3c(cc2F)C(NC(=O)O[C@@H]2CN4CCC2CC4)C(C)(C)CO3)c1 (stereo partly drawn) [Example 340, (S)-quinuclidin-3-yl (7-(2-chloro-5-methoxyphenyl)-6-fluoro-3,3-dimethylchroman-4-yl)carbamate] | 0.48 | 2.4
COc1ccc(-c2cc3c(cc2F)C(NC(=O)O[C@@H]2CN4CCC2CC4)C(C)(C)CO3)c(F)c1 (stereo partly drawn) [Example 341, (S)-quinuclidin-3-yl (6-fluoro-7-(2-fluoro-4-methoxyphenyl)-3,3-dimethylchroman-4-yl)carbamate] | 0.17 | 4.1
COc1ccc(-c2cc3c(cc2F)C(NC(=O)O[C@@H]2CN4CCC2CC4)C(C)(C)CO3)c(C)c1 (stereo partly drawn) [Example 342, (S)-quinuclidin-3-yl (6-fluoro-7-(4-methoxy-2-methylphenyl)-3,3-dimethylchroman-4-yl)carbamate] | 0.45 | 3.5
CCCCc1ccc(-c2cc3c(cc2F)C(NC(=O)O[C@@H]2CN4CCC2CC4)C(C)(C)CO3)cc1 (stereo partly drawn) [Example 343, (S)-quinuclidin-3-yl (7-(4-butylphenyl)-6-fluoro-3,3-dimethylchroman-4-yl)carbamate] | 0.12 | 0.1
CC(C)Oc1ccc(-c2cc3c(cc2F)C(NC(=O)O[C@@H]2CN4CCC2CC4)C(C)(C)CO3)cc1Cl (stereo partly drawn) [Example 344, (S)-quinuclidin-3-yl (7-(3-chloro-4-isopropoxyphenyl)-6-fluoro-3,3-dimethylchroman-4-yl)carbamate] | 0.58 | 7.3
